Our source for the EC50, solubility and cytotoxicity values is US7268162B2, “Aloe-emodin derivatives and their use in the treatment of neoplasias” (Universita' Degli Studi di Padova, priority 2001, dated 2007).

The test system of data set [1] is SJ-N-KP. In words: In vitro cytotoxicity assay (MTT), neuroblastoma SJ-N-KP. The format is cell-based, human. The conditions noted are these: 72 hrs exposure, medium with 10% inactivated FBS. The protocol:
(§1) In vitro cytotoxicity assays were conducted on different tumour cell lines, also of neuroectodermal origin. Purpose of said assays was also to check the compounds cytotoxic action and specificity. […] The aforesaid cells were assayed with the following compounds: • AM: ester of maleic acid (ex. 1) dissolved in DMSO • AS: ester of succinic acid (ex. 2) dissolved in DMSO • ADG: ester of diglycolic acid (ex. 3) dissolved in DMSO • AF: ester of phthalic acid (ex. 4) dissolved in DMSO • ABT: […] AE phosphoric ester (ex.12) dissolved in HEPES • AED: AE acetal with daunosamine (ex.13) dissolved in HEPES The cells, cultured according to known methods, were seeded 24 hrs prior to treatment with the various derivatives at a concentration of 1000 cells/100 μl. For molecules dissolved in dimethylsulphoxide, DMSO, the concentration of the initial stock was 200 mM and for molecules dissolved in a HEPES buffer and in the physiological solution was 1 mM. […] For each assay, a control was carried out with the medium alone (RPMI with 10% inactivated fetal bovine serum, FBS, and 1% penicillin/streptomycin). […] The cells viability was assessed by the MTT dye assay. […] The EC50 values (μM) referred to each compound and cell line are given.

Data set [2] has as its system IMR5. In words: In vitro cytotoxicity assay (MTT), neuroblastoma IMR-5. The format is cell-based, human. The conditions noted are these: medium with 10% inactivated FBS. The protocol:
as §1

In data set [3] the test system is LoVo 109. In words: In vitro cytotoxicity assay (MTT), colon adenocarcinoma LoVo 109. Type of data set: cell-based, human. The settings on record: 72 hrs exposure, medium with 10% inactivated FBS. The protocol: as §1
For data set [4] the following is noted: water and physiological solution; cited from earlier work.
In data set [5] the test system is tumour cells of neuroectodermal origin. The conditions noted are these: Italian patent application No. MI 2000A001216; cited from earlier work.
Data set [6] has as its system SJ-N-KP. In words: In vitro cytotoxicity assay (MTT), neuroblastoma SJ-N-KP. Type of data set: cell-based, human. The settings on record: 72 hrs exposure, medium with non-inactivated FBS (esterase).
Data set [7] has as its system IMR5. In words: In vitro cytotoxicity assay (MTT), neuroblastoma IMR-5. Type of data set: cell-based, human. The conditions noted are these: 72 hrs exposure, medium with non-inactivated FBS (esterase).
Data set [8] deals with LoVo 109. In words: In vitro cytotoxicity assay (MTT), colon adenocarcinoma LoVo 109. The settings on record: 72 hrs exposure, medium with non-inactivated FBS (esterase). The format is cell-based, human.

Structures can show the parent of a compound that is named as a salt.

Consider `CC(N)C(=O)OCc1cc(O)c2c(c1)C(=O)c1cccc(O)c1C2=O` (centres unmarked) [Ex. 7: ALA-NH2, AE Ester with Alanine], for which the EC50 – broadly, the midpoint of the concentration-response curve – was 264 µM in the data set with SJ-N-KP [1] and 300 µM in the data set on IMR5 [2] (72 hrs exposure).
`O=C(O)COCC(=O)OCc1cc(O)c2c(c1)C(=O)c1cccc(O)c1C2=O` [Ex. 3: ADG, (4,5-Dihydroxy-9,10-dioxo-9,10-dihydroanthracen-2-ylmethoxycarbonylmethoxy) acetic acid]: the EC50 in the data set with SJ-N-KP [1] (Homo sapiens) came out at 10 µM; in the data set on IMR5 [2] (Homo sapiens, IMR-5, 72 hrs exposure) it was 10 µM; with LoVo 109 [3] (Homo sapiens, LoVo), 20 µM.
Take `O=C(O)C=CC(=O)OCc1cc(O)c2c(c1)C(=O)c1cccc(O)c1C2=O` [Ex. 1: AM, mono-(4,5-dihydroxy-9,10-dioxo-9,10-dihydroanthracen-2-ylmethyl)ester but-2-endioic acid]: the EC50 with SJ-N-KP [1] and with IMR5 [2] (72 hrs exposure) was 270 to 280 µM each time.
Regarding `O=C1c2cccc(O)c2C(=O)c2c(O)cc(COP(=O)(O)O)cc21` [Ex. 12: AEP, AE Ester with Phosphoric Acid], the EC50 in the data set on SJ-N-KP [1] was found to be 12 µM; in the data set on IMR5 [2] (72 hrs exposure), 10 µM; in the data set on LoVo 109 [3], 20 µM.
On to `O=C(O)c1ccc(C(=O)OCc2cc(O)c3c(c2)C(=O)c2cccc(O)c2C3=O)c(C(=O)O)c1` [Ex. 5: ABT, 1-(4,5-dihydroxy-9,10-dioxo-9,10-dihydroanthracen-2-ylmethyl)ester 1,2,4-Benzenetricarboxylic acid], for which the EC50 worked out at 150 µM in the data set on SJ-N-KP [1] and 160 µM in the data set on IMR5 [2] (72 hrs exposure).
Take `O=C(O)CCC(=O)OCc1cc(O)c2c(c1)C(=O)c1cccc(O)c1C2=O` [Ex. 2: AS, mono-(4,5-dihydroxy-9,10-dioxo-9,10-dihydroanthracen-2-ylmethyl)ester succinic acid]: the values for the EC50 in the data set on SJ-N-KP [1], in the data set with IMR5 [2] (72 hrs exposure) and in the data set with LoVo 109 [3] were 43 µM, 40 µM and 43 µM, respectively.
In the case of `O=C1c2cccc(O)c2C(=O)c2c(O)cc(CO)cc21` [Aloe-emodin, aloe-emodin], the solubility entry in data set [4] is “hardly soluble in water and in the physiological solution”. The cytotoxicity entry in data set [5] is on record as “specific cytotoxicity to tumour cells of neuroectodermal origin”.
As for `N[C@@H](Cc1c[nH]c2ccccc12)C(=O)OCc1cc(O)c2c(c1)C(=O)c1cccc(O)c1C2=O` [Ex. 6: TRIP, AE Ester with Tryptophan], the EC50 is 8 to 9 µM in the data set on SJ-N-KP [1], 10 µM with IMR5 [2] (72 hrs exposure) and 8 to 9 µM in the data set on LoVo 109 [3].
On to `CC[C@H](C)[C@H](N)C(=O)OCc1cc(O)c2c(c1)C(=O)c1cccc(O)c1C2=O` [Ex. 8: PJ8, AE Ester with Isoleucine], for which the results for the EC50 with SJ-N-KP [1], with IMR5 [2] (72 hrs exposure) and with LoVo 109 [3] were 9 µM, 9 µM and 20 µM, respectively.
`C[C@H](N)C(=O)OCc1cc(O)c2c(c1)C(=O)c1cccc(O)c1C2=O` [Ex. 11: ALA, ala-aloe-emodin hydrochloride]: the EC50 in the data set with SJ-N-KP [1] (hydrochloride) stood at 200 µM; in the data set on SJ-N-KP [1] (listed as Ex. 11: ALA-HCI, hydrochloride) it was 70.6 µM; in the data set on IMR5 [2] (72 hrs exposure, hydrochloride), 200 µM; in the data set with IMR5 [2] (72 hrs exposure, listed as Ex. 11: ALA-HCI, hydrochloride), 70.6 µM; in the data set on LoVo 109 [3], 200 µM.
Consider `C[C@H](N)C(=O)OCc1cc(O)c2c(c1)C(=O)c1cccc(O)c1C2=O` [Ex. 10: EM9, ala-aloe-emodin trifluoroacetate], for which the EC50 with SJ-N-KP [1] was 6.7 µM; in the data set with IMR5 [2] (72 hrs exposure) it was 6.7 µM; in the data set on LoVo 109 [3] it was 5 µM.
Consider `O=C(O)c1ccccc1C(=O)OCc1cc(O)c2c(c1)C(=O)c1cccc(O)c1C2=O` [Ex. 4: AF, mono-(4,5-dihydroxy-9,10-dioxo-9,10-dihydroanthracen-2-ylmethyl)ester phthalic acid], for which the EC50 with SJ-N-KP [1] is 300 µM; with IMR5 [2] (72 hrs exposure) it was 250 µM; in the data set with SJ-N-KP [6], 50 µM; in the data set on IMR5 [7] it was 50 µM; in the data set on LoVo 109 [8], 50 µM.
For “AE Acetal with Daunosamine [Ex. 13: AED]”, the EC50 came to 5 µM in the data set on SJ-N-KP [1], 5 µM in the data set with IMR5 [2] (72 hrs exposure) and 10 µM in the data set on LoVo 109 [3].
Turning to `NC(Cc1ccc(O)cc1)C(=O)OCc1cc(O)c2c(c1)C(=O)c1cccc(O)c1C2=O` (centres unmarked) [Ex. 9: TIR-NH2, AE Ester with Tyrosine], the EC50 with SJ-N-KP [1] is 96.4 µM; in the data set with LoVo 109 [3] it was 26 µM.
